Experimental data published in ChEMBL document CHEMBL4020799, “Design, synthesis of novel furan appended benzothiazepine derivatives and in vitro biological evaluation as potent VRV-PL-8a and H+/K+ ATPase inhibitors” (Bioorg Med Chem Lett, 2017).
The source made the active and inactive calls. The rule behind the calls is not given here.

Tests used:
[1] = target: T1, Basic phospholipase A2 VRV-PL-VIIIa (Daboia russelii) (UniProt P59071); assay: (§1) Inhibition of Vipera russelii sPLA2 pre-incubated for 5 mins before DMPC substrate addition and measured after 45 mins
T1 sequence (whole entry): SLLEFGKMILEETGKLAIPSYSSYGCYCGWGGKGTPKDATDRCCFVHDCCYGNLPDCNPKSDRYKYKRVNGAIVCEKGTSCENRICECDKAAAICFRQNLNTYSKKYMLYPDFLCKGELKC

[2] = target: T2, Basic phospholipase A2 VRV-PL-VIIIa (Daboia russelii, UniProt P59071); assay: as §1
T2 sequence (P59071 whole entry): T1 sequence (whole entry)

[3] = Inhibition of hydrogen potassium ATPase in pig stomach mucosal membrane assessed as reduction in liberated inorganic phosphate level after 15 mins by colorimetric method; assay type: cell membranes, Sus scrofa
[4] = target: T1, Basic phospholipase A2 VRV-PL-VIIIa (Daboia russelii); assay: Inhibition of Vipera russelii venom sPLA2-induced hemolytic activity in human erythrocytes assessed as reduction hemoglobin release in presence of egg yolk preincubated for 5 mins followed by erythrocyte addition by spectrophotometric analysis; assay type: cell-based
[5] = target: T1, Basic phospholipase A2 VRV-PL-VIIIa (Daboia russelii); assay: Inhibition of Vipera russelii venom sPLA2 at 11.01 uM in presence of fixed concentrations of DMPC substrate and 0 to 12 uM of calcium measured after 5 mins
[6] = target: T1, Basic phospholipase A2 VRV-PL-VIIIa (Daboia russelii); assay: Inhibition of Vipera russelii venom sPLA2 at 11.01 uM in presence of fixed concentration of calcium and 0 to 400 uM of DMPC substrate measured after 5 mins
[7] = target: T1, Basic phospholipase A2 VRV-PL-VIIIa (Daboia russelii); assay: Inhibition of Vipera russelii venom sPLA2 assessed as remaining enzyme activity level at 11.01 uM in presence of fixed concentration of calcium and 400 uM of DMPC substrate measured after 5 mins

SMILES	inhibition [1]	IC50 [2] [µM]	IC50 [3] [µM]	inhibition [4]	inhibition [5]	inhibition [6]	Activity [7] [%]
Clc1ccc(C2CC(c3ccco3)=Nc3ccccc3S2)cc1 (stereo not drawn)	Dose-dependent effect	19.3	5.28	–	–	–	–
Fc1ccc(C2CC(c3ccco3)=Nc3ccccc3S2)cc1 (stereo not drawn)	Dose-dependent effect	25.2	5.1	–	–	–	–
Brc1ccc(C2CC(c3ccco3)=Nc3ccccc3S2)cc1 (stereo not drawn)	Dose-dependent effect	24.1	2.11	–	–	–	–
COc1ccc(C2CC(c3ccco3)=Nc3ccccc3S2)cc1 (stereo not drawn)	Dose-dependent effect	11	1.99	Dose-dependent effect	Active	Active	51
O=[N+]([O-])c1ccc(C2CC(c3ccco3)=Nc3ccccc3S2)cc1 (stereo not drawn)	Dose-dependent effect	56.9	3.73	–	–	–	–
COc1cc(C2CC(c3ccco3)=Nc3ccccc3S2)ccc1O (stereo not drawn)	Dose-dependent effect	43.4	4.39	–	–	–	–
c1coc(C2=Nc3ccccc3SC(c3ccc4c(c3)OCO4)C2)c1 (stereo not drawn)	Dose-dependent effect	25.1	5.14	–	–	–	–
c1ccc(C2CC(c3ccco3)=Nc3ccccc3S2)cc1 (stereo not drawn)	Dose-dependent effect	12	8.01	–	–	–	–
